Results taken from patent publication US20260207720A1, “COMPOSITIONS AND METHODS FOR TREATING FUNGAL INFECTIONS” (MUCPharm Pty Ltd, priority 2022, published 2026).
In brackets after ≈: the same amount, converted by molar mass. Where two headings read alike, the source gives them in different places.

Columns and labels:
Type in all cases: cell-based
[1] = tested on: Candida Krusei (ATCC strain 6258); assay: Broth dilution susceptibility test, MIC and percent growth (Example 6)
Description: (§1) A. Preparation of inoculum: • 1. Candida glabrata was grown on Sabouraud dextrose agar (SDA) at 37° C. for 24-48 hrs. • 2. Following this, 5 colonies of 1 mm diameter were picked and suspended in 5 mL sterile saline (0.9% saline) and vortexed for 15 seconds. • 3. Working suspension is prepared as a 1:100 dilution from stock suspension with RPMI 1640 culture medium. • 4. The cell density is adjusted with a spectrophotometer to the transmittance produced by a 0.5 McFarland standard (0.08 to 0.1) OD at 625 nm wavelength.
(§2) • 1. For Bromelain, a stock concentration of 1 mg/ml Bromelain solution was prepared in RPMI media and diluted to test concentrations of 62.4, 31.2, 15.6 and 7.8 μg/ml in RPMI 1640 media. • 2. Acetylcysteine stock concentration is 200 mg/ml, diluted to 40, 20, 10, and 5 mg/ml concentrations in RPMI 1640 medium. • 3. These concentrations are prepared at 2× of the required concentrations in the final assay plate.
(§3) Antifungal stock concentrations are as follows— • 1. Amphotericin B, Stock concentration: 250 μg/ml in water. • 2. Posaconazole, Original concentration: 300 mg in 16.7 ml, Working stock concentration: 1 mg/ml in DMSO. • 3. Fluconazole, Original concentration: 100 mg in 50 ml, Working stock concentration: 1 mg/ml in DMSO. • 4. The final concentration was prepared in RPMI 1640 media and concentrations range was 0.01-0.5 μg/mL for amphotericin B, 0.01-2 μg/mL for posaconazole and 0.01-64 μg/mL for fluconazole. • 5. These concentrations were prepared at 2× of the required concentrations in the final assay plate.
(§4) • 1. Wells of the 96-well plates were inoculated with appropriate concentrations and volumes of drugs. • 2. Sterility control and growth controls are included in each plate. • 3. Each 96-well plate (except the control wells) contains 100 μL of double strength (twice the final antifungal drug) concentrations. • 4. 100 μL of the fungal suspension is added to 96-well plates (except the sterility control wells). • 5. The growth control wells contained 100 μL of sterile drug-free medium and 100 μL of inoculum suspension, while the sterility control wells contained 200 μl of sterile drug-free medium. • 6. Plates are then incubated at 37° C. and read at 625,430, and 530 nm wavelengths. • 7. Data from 24 hours and absorbance at 625 nm were used for analysis.
These experiments were conducted to determine the effect of BromAc alone and in combination with existing antifungal drugs against Candida Krusei (ATCC strain 6258).
The method used in these experiments is essentially the same as that described above in Example 5.

[2] = tested on: Candida glabrata (clinical isolate); assay: Broth dilution susceptibility test, MIC and percent growth (Example 5)
Description: These experiments were conducted to determine the effect of BromAc alone and in combination with existing antifungal drugs against Candida glabrata (clinical isolate).
as §1, §2, §3, §4

[3] = tested on: Candida tropicalis; assay: Susceptibility assay of antifungals with BromAc (Example 4); conditions: antifungal in combination with BromAc (5 mg/ml Acetylcysteine+12.5 μg/ml Bromelain) vs alone
Description: (§5) The in vitro antifungal properties of Bromelain, Acetylcysteine, BromAc, Amphotericin B, Isavuconazole, Fluconazole and Posaconazole were determined using a broth microdilution method in round bottom 96 well plates in accordance with standard procedures defined by the Clinical Laboratory Standards Institute (CLSI).
(§6) Unless otherwise described, fungal cultures were grown on potato dextrose agar plates at 35° C. until mature (appearance of conidia) and used to prepare suspensions in sterile water. Suspensions were diluted in RPMI 1:60. These suspensions were then added in equal volume to solutions containing the candidate species described above and incubated at 35° C. for 24 hr. Plates were then analysed for fungal growth inhibition and MIC values determined.
(§7) BromAc (5 mg/ml Acetylcysteine+12.5 μg/ml Bromelain) was used in combination with Amphotericin B, Isavuconazole, Posaconazole and Fluconazole. The MIC values of these four antifungal agents against the fungus described below were calculated and compared with their corresponding MIC values in the presence of BromAc, using the standard susceptibility assays described above.
(§8) The fungal strains set out in Table 2, all of which were sourced from a range of clinical isolates from Australian hospitals, were used in these experiments to gain a further understanding of the efficacy of BromAc in combination with Amphotericin B, Isavuconazole, Posaconazole and Fluconazole.

[4] = tested on: Candida glabrata; assay: as above; conditions: for Observed inhibitory effect: antifungal in combination with BromAc (5 mg/ml Acetylcysteine+12.5 μg/ml Bromelain) vs alone
Description: as §5, §6, §7, §8

[5] = tested on: Cryptococcus; assay: as above; conditions: for Observed inhibitory effect: antifungal in combination with BromAc (5 mg/ml Acetylcysteine+12.5 μg/ml Bromelain) vs alone; for isolates with more than 10× increase: antifungal with BromAc
Description: as §5, §6, §7, §8

[6] = tested on: Candida auris; assay: as above; conditions: for Observed inhibitory effect: Candida aurus, antifungal in combination with BromAc (5 mg/ml Acetylcysteine+12.5 μg/ml Bromelain) vs alone
Description: as §5, §6, §7, §8

[7] = tested on: Candida kruseii; assay: as above; conditions: antifungal in combination with BromAc (5 mg/ml Acetylcysteine+12.5 μg/ml Bromelain) vs alone
Description: as §5, §6, §7, §8

[8] = tested on: Rhizopus microsporus; assay: Chequerboard broth microdilution antifungal susceptibility testing (MIC)
Description: as §6, with “Suspensions were diluted in RPMI 1:60.” left out, “determined. […] [MICA (combined)/MICA]+[MICB (combined)/MICB] MICA (combined) is the MIC of drug A when both drugs (i.e. drug A and drug B) are present and MICA is the MIC of drug A used in isolation. Similarly, MICB (combined) is the MIC of drug B when both drugs are present and MICB is the MIC of drug B used in isolation.” for “determined.”

[9] = tested on: Rhizopus arrhizus; assay: as above
Description: as §6, with “Suspensions were diluted in RPMI 1:60.” left out, “determined. […] [MICA (combined)/MICA]+[MICB (combined)/MICB] MICA (combined) is the MIC of drug A when both drugs (i.e. drug A and drug B) are present and MICA is the MIC of drug A used in isolation. Similarly, MICB (combined) is the MIC of drug B when both drugs are present and MICB is the MIC of drug B used in isolation.” for “determined.”

[10] = tested on: Licthemia; assay: Susceptibility assay of antifungals with BromAc (Example 4); conditions: antifungal in combination with BromAc (5 mg/ml Acetylcysteine+12.5 μg/ml Bromelain) vs alone
Description: as §5, §6, §7, §8

[11] = tested on: Aspergillus; assay: as above; conditions: antifungal in combination with BromAc (5 mg/ml Acetylcysteine+12.5 μg/ml Bromelain) vs alone
Description: as §5, §6, §7, §8

[12] = tested on: Fusarium; assay: as above; conditions: antifungal in combination with BromAc (5 mg/ml Acetylcysteine+12.5 μg/ml Bromelain) vs alone
Description: as §5, §6, §7, §8

[13] = tested on: Lomentospora; assay: as above; conditions: antifungal in combination with BromAc (5 mg/ml Acetylcysteine+12.5 μg/ml Bromelain) vs alone
Description: as §5, §6, §7, §8

[14] = tested on: Scedosporium; assay: as above; conditions: antifungal in combination with BromAc (5 mg/ml Acetylcysteine+12.5 μg/ml Bromelain) vs alone
Description: as §5, §6, §7, §8

[15] = tested on: Mucor circinelloides; assay: as above
Description: as §5, §6, §7, §8

[16] = tested on: Cunninghamella; assay: as above; conditions: antifungal in combination with BromAc (5 mg/ml Acetylcysteine+12.5 μg/ml Bromelain) vs alone
Description: as §5, §6, §7, §8

[17] = tested on: Aspergillus fumigatus (ATCC strain 13697); assay: Broth dilution susceptibility test, MIC and percent growth (Example 7)
Description: as §1, §2, §3, §4
These experiments were conducted to determine the efficacy of BromAc alone and in combination with existing antifungal drugs against Aspergillus fumigatus (ATCC strain 13697).
The method used in these experiments is essentially the same as that described above in Example 5. In these experiments, however, echinocandins such as […] Caspofungin are used in place of the azole antifungals described in earlier examples.

For `OC(Cn1cncn1)(Cn1cncn1)c1ccc(F)cc1F` [Fluconazole], the MIC ([1]; Pichia kudriavzevii, ATCC6258, 50% growth inhibition, FIG. 11) was 32 µg/mL, the inhibition at 32 µg/mL ([1]; Pichia kudriavzevii, ATCC6258, Posaconazole 1 ug/ml, Fluconazole 32 μg/ml, read-out: activity (growth inhibition) at its MIC) was 50% and the “effect at lower doses / concentrations compared to GC (in words)” value ([1]; below the MIC (Posaconazole 0.03 μg/ml)) was “no efficacy”. For the same molecule, the MIC ([2]; Nakaseomyces glabratus, 50% growth inhibition, 24 hours, 625 nm) was over 32 µg/mL, the “effect at lower concentration compared to growth control (in words)” value ([2]; concentrations lower than the MIC) was “no change” and the Observed inhibitory effect [3] was “Strong (Strong = 5-10x (or greater) inhibitory effect)”. For the same molecule, the Observed inhibitory effect [4] was “Strong (Strong = 5-10x (or greater) inhibitory effect)”, the Observed inhibitory effect [5] was “Strong (Strong = 5-10x (or greater) inhibitory effect)” and the “isolates with more than 10× increase” value [5] was 5 of 5. For the same molecule, the Observed inhibitory effect [6] was “No effect” and the Observed inhibitory effect [7] was “Strong (Strong = 5-10x (or greater) inhibitory effect)”.

`C[C@@H](c1nc(-c2ccc(C#N)cc2)cs1)[C@](O)(Cn1cncn1)c1cc(F)ccc1F` [Isavuconazole] was tested, and the “isolates with more than 10× increase” value ([8]; Rhizopus microspores, antifungal with BromAc) was 9 of 10, the MIC ([8]; Rhizopus microsporus, eight R. microsporus strains, read-out: MIC, average over the strains) was 0.9 µg/mL (≈ 2.06 µM) and the MIC ([8]; Rhizopus microsporus, isolate R. microsporus 1, BromAc at constant concentration where combined, read-out: MIC) was 0.2 µg/mL. It also gave an MIC ([8]; Rhizopus microsporus, isolate R. microsporus 2, BromAc at constant concentration where combined, read-out: MIC) of 0.5 µg/mL, an MIC ([8]; Rhizopus microsporus, isolate R. microsporus 3, BromAc at constant concentration where combined, read-out: MIC) of 0.5 µg/mL and an MIC ([8]; Rhizopus microsporus, isolate R. microsporus 4, BromAc at constant concentration where combined, read-out: MIC) of 1 µg/mL. It also gave an MIC ([8]; Rhizopus microsporus, isolate R. microsporus 5, BromAc at constant concentration where combined, read-out: MIC) of 0.5 µg/mL, an MIC ([8]; Rhizopus microsporus, isolate R. microsporus 6, BromAc at constant concentration where combined, read-out: MIC) of 0.5 µg/mL and an MIC ([8]; Rhizopus microsporus, isolate R. microsporus 7, BromAc at constant concentration where combined, read-out: MIC) of 0.5 µg/mL. For the same molecule, the Observed inhibitory effect ([8]; Rhizopus microsporus, antifungal in combination with BromAc (5 mg/ml Acetylcysteine+12.5 μg/ml Bromelain) vs alone) was “Strong (Strong = 5-10x (or greater) inhibitory effect)”, the “MICs, range over the strains” value ([8]; eight R. microsporus strains) was 0.5 to 1 µg/mL and the “isolates with 10× increase” value ([9]; Rhizopus Arrhizus, antifungal with BromAc) was 6 of 8. It also gave an MIC ([9]; Rhizopus arrhizus, eight R. arrhizus strains, read-out: MIC, average over the strains) of 0.8 µg/mL (≈ 1.83 µM), an MIC ([9]; Rhizopus arrhizus, isolate R. archizus 1, BromAc at constant concentration where combined, read-out: MIC) of 1 µg/mL and an MIC ([9]; Rhizopus arrhizus, isolate R. archizus 2, BromAc at constant concentration where combined, read-out: MIC) of 1 µg/mL. It also gave an MIC ([9]; Rhizopus arrhizus, isolate R. archizus 3, BromAc at constant concentration where combined, read-out: MIC) of 1 µg/mL, an MIC ([9]; Rhizopus arrhizus, isolate R. archizus 8, BromAc at constant concentration where combined, read-out: MIC) of 1 µg/mL and an MIC ([9]; Rhizopus arrhizus, isolate R. arrhizus 4, BromAc at constant concentration where combined, read-out: MIC) of 1 µg/mL. It also gave an MIC ([9]; Rhizopus arrhizus, isolate R. arrhizus 5, BromAc at constant concentration where combined, read-out: MIC) of 0.5 µg/mL, an MIC ([9]; Rhizopus arrhizus, isolate R. arrhizus 6, BromAc at constant concentration where combined, read-out: MIC) of 1 µg/mL and an MIC ([9]; Rhizopus arrhizus, isolate R. arrhizus 7, BromAc at constant concentration where combined, read-out: MIC) of 0.5 µg/mL. The Observed inhibitory effect ([9]; Rhizopus arrhizus, antifungal in combination with BromAc (5 mg/ml Acetylcysteine+12.5 μg/ml Bromelain) vs alone) was “Strong (Strong = 5-10x (or greater) inhibitory effect)”, the “MICs, range over the strains” value ([9]; eight R. arrhizus strains) was 0.5 to 2 µg/mL and the Observed inhibitory effect [3] was “Strong (Strong = 5-10x (or greater) inhibitory effect)”. The Observed inhibitory effect [10] was “Possible”, the Observed inhibitory effect [11] was “Moderate (Moderate = 1-5x inhibitory effect)” and the Observed inhibitory effect [4] was “Strong (Strong = 5-10x (or greater) inhibitory effect)”. For the same molecule, the “isolates with more than a 10× increase in sensitivity” value ([4]; antifungal with BromAc) was 5 of 5, the Observed inhibitory effect [5] was “Strong (Strong = 5-10x (or greater) inhibitory effect)” and the “isolates with more than 10× increase” value [5] was 5 of 5. The Observed inhibitory effect [12] was “No effect”, the Observed inhibitory effect [13] was “No effect” and the “isolates with more than 10× increase” value ([6]; Candida auris, antifungal with BromAc) was 4 of 5. The Observed inhibitory effect [6] was “Strong (Strong = 5-10x (or greater) inhibitory effect)”, the Observed inhibitory effect [14] was “No effect” and the Observed inhibitory effect ([15]; antifungal in combination with BromAc (5 mg/ml Acetylcysteine+12.5 μg/ml Bromelain) vs alone) was “Strong (Strong = 5-10x (or greater) inhibitory effect)”. The “isolates with increased sensitivity” value ([15]; antifungal with BromAc) was 2 of 2, the Observed inhibitory effect [16] was “Possible” and the Observed inhibitory effect [7] was “Strong (Strong = 5-10x (or greater) inhibitory effect)”.

`C[C@@H](c1ncncc1F)[C@](O)(Cn1cncn1)c1ccc(F)cc1F` [Voriconazole] was tested, and the MIC ([17]; Aspergillus fumigatus, ATCC13697, FIGS. 13a, 14a, read-out: MIC) was 2 µg/mL and the “effect at lower concentrations (in words)” value ([17]; Voriconazole 1 μg/ml and 0.5 μg/ml, Caspofungin 0.25 μg/ml and 0.125 μg/ml) was “almost no inhibitory effect”.
